Paper PMC5432616, “Oligomeric State and Thermal Stability of Apo- and Holo- Human Ornithine δ-Aminotransferase” (The Protein Journal, 2017)
Substitutions are numbered along the chain they refer to.

How the values were obtained:
[1] = target: T1, hOAT (human ornithine δ-aminotransferase) (Homo sapiens, UniProt P04181, R217A); assay: quenching of intrinsic fluorescence of apoenzyme at […] nm; type: binding; settings: read-out: KD(PLP)
T1 construct: gene OAT; untagged, pET43a, E. coli BL21(DE3)pLysS; DEAE and Superdex 200; tetramer in equilibrium with dimer, dimer is the functional unit
T1 sequence (P04181 26-439 R217A): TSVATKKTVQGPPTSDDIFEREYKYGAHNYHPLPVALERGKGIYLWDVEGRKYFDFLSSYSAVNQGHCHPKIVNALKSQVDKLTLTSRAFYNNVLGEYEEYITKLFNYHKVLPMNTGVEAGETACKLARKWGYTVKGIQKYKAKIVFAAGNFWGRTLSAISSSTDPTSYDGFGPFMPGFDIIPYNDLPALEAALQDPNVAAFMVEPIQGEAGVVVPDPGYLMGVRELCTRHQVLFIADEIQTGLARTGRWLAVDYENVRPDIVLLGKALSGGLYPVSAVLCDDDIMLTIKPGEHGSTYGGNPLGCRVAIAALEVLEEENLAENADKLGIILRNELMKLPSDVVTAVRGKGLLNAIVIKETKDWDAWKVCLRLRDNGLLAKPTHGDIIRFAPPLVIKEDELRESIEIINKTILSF

[2] = target: T2, hOAT (human ornithine δ-aminotransferase) (Homo sapiens, UniProt P04181); assay: thermal denaturation followed by CD at […] nm, holo versus apo; type: binding; settings: 50 mM Hepes, pH 7.4, 0.5 M NaCl; tetrameric form; covalent (internal aldimine with Lys292)
T2 construct: gene OAT; untagged, pET43a, E. coli BL21(DE3)pLysS; DEAE and Superdex 200; tetramer in equilibrium with dimer, dimer is the functional unit
T2 sequence (P04181 26-439): T1 sequence (P04181 26-439 R217A) with A192R

Kd [1]: 280 ± 300 nM | dTm (apparent Tm, holo minus apo) [2]: ~ 21 °C
SMILES: Cc1ncc(COP(=O)(O)O)c(C=O)c1O [PLP]
